The values below come from patent US10047078B2, “Aminothiazole compounds” (National Health Research Institutes, priority 2016, dated 2018).

pIC50: −log10 of the molar value. A value given as a limit tells only on which side of the number the result lay.

In one data set the test system is Colo205 xenografts. Nature of the data set: Xenograft efficacy, Colo205 model. It counts as in vivo. The following applies: Colo205 xenografts in nude mice; PO 50 mg/kg, 5 times a week for 2 weeks; 50 mg/kg. Here is the method: (§1) Male nude mice (Nu-Fox1^nu) of 8 weeks old were purchased from BioLASCO (Taipei, Taiwan, R.O.C.). Human colorectal Colo205, pancreatic Mia-PaCa 2 tumor cells or MOLM-13, 32D-ITD/D835Y leukemia cells were inoculated subcutaneously at 1×10^6 cells each in the nude mice. All human cancer cells were detected as free of Mycoplasma spp before they were injected into animals. The tumor cells grow as xenograft tumors and the tumor size reached approximately 200-250 mm^3 in the nude mice ready for dose treatments. Test compounds were dissolved in 20% 2-hydroxypropy-β-cyclodextrin individually for oral gavage administrations to the nude mice. The tumor-bearing mice were treated with test compounds at various doses, 5 times a week for 2 weeks. Tumor sizes were measured by an electronic caliper and calculated with the formula: tumor size=length×width^2/2. Tumor size and animal body weight were measured twice a week before and after the tumor cell inoculation throughout the observation period. Uses of animals and experimental procedures thereof were approved by the Institutional Animal Care and Use Committee (IACUC) of the National Health Research Institutes.

Data set [1] deals with xenografts colo205 nude mice. The experiment in a line: In vivo toxicity study, colo205 model. The protocol:
as §1, with “All human cancer cells were detected as free of Mycoplasma spp before they were injected into animals.” left out
Nine weeks old athymic nu/nu nude mice were administered orally at a once daily dose of 25, 50, 100, or 150 mg/kg on days 1-5 and 8-12.

The next data set deals with PDGFR A (Homo sapiens, UniProt P16234). The experiment in a line: SelectScreen biochemical kinase profiling. It counts as binding. Here is the method: (§2) Kinase inhibition data were obtained from SelectScreen® Biochemical Kinase Profiling Service.
Sequence of PDGFR A (P16234 24-1089): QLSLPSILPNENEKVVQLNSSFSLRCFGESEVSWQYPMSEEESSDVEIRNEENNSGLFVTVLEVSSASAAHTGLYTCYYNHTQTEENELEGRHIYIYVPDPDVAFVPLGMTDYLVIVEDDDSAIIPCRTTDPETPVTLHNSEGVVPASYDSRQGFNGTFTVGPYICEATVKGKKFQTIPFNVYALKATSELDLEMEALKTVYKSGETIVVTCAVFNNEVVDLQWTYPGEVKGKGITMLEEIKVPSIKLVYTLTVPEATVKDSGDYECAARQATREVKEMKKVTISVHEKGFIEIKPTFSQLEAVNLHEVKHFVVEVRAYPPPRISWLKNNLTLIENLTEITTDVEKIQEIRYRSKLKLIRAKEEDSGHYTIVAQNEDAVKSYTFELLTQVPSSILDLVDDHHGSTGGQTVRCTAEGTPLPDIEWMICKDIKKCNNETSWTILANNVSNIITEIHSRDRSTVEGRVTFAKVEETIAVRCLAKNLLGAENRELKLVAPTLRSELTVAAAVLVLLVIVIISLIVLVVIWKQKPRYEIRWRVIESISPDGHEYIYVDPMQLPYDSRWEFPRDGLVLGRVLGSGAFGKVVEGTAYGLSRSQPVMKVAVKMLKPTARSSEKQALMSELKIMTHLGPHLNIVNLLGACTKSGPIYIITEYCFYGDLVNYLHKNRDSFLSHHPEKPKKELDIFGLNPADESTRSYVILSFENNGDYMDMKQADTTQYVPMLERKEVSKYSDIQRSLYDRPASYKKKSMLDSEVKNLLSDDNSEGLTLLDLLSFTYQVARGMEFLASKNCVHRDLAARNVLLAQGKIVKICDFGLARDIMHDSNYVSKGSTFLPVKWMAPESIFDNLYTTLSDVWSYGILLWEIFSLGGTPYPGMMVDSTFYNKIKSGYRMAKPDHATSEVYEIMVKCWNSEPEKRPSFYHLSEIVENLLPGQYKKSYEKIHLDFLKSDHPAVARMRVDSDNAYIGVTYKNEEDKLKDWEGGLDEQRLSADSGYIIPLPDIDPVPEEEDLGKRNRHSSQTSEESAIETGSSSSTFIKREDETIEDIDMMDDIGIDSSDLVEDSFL
(§3) More specifically, test compounds were screened in 160 nL of a 1% DMSO solution in the well of a 384-well plate; kinase/antibody mixtures (8 μL) were diluted to a 2-fold working concentration in an appropriate kinase buffer (3.84 μL) and a 4-fold AlexaFluor® labeled tracer (4 μL) was prepared in the kinase buffer; incubation of test solutions was conducted at room is temperature for 60 minutes; and readout on a fluorescence plate reader was recorded and analyzed.

The target of another data set is VEGFR2 (Homo sapiens, UniProt P35968). Nature of the data set: SelectScreen biochemical kinase profiling. The class given is binding. Here is the method:
as §2, §3

The next data set has as its target SRC (Homo sapiens, UniProt P12931). The experiment in a line: SelectScreen biochemical kinase profiling. It counts as binding. Here is the method: as §2, §3
The target in another data set is KIT (Homo sapiens, UniProt P10721). The experiment in a line: SelectScreen biochemical kinase profiling. The class given is binding. The protocol:
as §2, §3

The next data set concerns the target ABL1 (Homo sapiens, UniProt P00519). The experiment in a line: SelectScreen biochemical kinase profiling. It counts as binding. The following applies: 100 nM, read-out: Inhibition (% of control) at 100 nM. The protocol:
as §2, §3

In another data set the target is ABL1 T315I (Homo sapiens, UniProt P00519, T315I). The experiment in a line: SelectScreen biochemical kinase profiling. It counts as binding. The following applies: 100 nM, read-out: Inhibition (% of control) at 100 nM. The protocol:
as §2, §3

The target in another data set is PDGFR B (Homo sapiens, UniProt P09619). The experiment in a line: SelectScreen biochemical kinase profiling. The class given is binding. Here is the method: as §2, §3
Sequence of PDGFR B (P09619 33-1106): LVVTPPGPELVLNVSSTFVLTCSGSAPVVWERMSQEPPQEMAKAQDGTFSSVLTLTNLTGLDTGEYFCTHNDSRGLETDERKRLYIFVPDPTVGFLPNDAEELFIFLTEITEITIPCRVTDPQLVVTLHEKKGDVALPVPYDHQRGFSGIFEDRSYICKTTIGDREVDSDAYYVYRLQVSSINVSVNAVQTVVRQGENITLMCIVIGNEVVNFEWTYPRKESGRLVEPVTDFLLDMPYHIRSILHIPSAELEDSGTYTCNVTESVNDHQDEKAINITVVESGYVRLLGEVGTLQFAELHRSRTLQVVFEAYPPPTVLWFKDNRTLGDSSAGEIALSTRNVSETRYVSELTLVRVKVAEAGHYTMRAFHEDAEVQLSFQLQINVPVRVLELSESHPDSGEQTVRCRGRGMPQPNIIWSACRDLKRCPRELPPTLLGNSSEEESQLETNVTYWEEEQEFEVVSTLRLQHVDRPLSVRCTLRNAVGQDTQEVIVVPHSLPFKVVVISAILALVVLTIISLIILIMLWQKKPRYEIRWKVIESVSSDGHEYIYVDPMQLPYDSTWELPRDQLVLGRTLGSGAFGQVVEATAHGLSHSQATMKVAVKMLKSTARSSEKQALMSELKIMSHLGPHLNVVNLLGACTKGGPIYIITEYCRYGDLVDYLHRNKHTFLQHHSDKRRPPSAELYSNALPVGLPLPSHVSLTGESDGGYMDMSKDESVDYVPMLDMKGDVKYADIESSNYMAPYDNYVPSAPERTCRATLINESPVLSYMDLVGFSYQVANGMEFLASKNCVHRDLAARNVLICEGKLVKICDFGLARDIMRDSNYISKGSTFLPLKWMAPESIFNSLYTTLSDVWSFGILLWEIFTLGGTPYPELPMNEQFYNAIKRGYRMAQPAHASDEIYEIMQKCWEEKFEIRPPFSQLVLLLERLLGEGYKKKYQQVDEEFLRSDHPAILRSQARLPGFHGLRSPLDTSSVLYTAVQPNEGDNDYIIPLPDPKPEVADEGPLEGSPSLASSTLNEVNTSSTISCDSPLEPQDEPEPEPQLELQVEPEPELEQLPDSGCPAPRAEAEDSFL
The target of a further data set is RET (Homo sapiens, UniProt P07949). The experiment in a line: SelectScreen biochemical kinase profiling. The class given is binding. The following applies: 100 nM, read-out: Inhibition (% of control) at 100 nM. The protocol: as §2, §3
The subject of the next data set is 32D-ITD/F691L cells. Nature of the data set: MTS cell viability, 32D cells expressing FLT3-ITD mutant. The class given is cell-based, Murine. The note with it: Mus musculus, 32D, 72 h, 72-h incubation. An excerpt:
(§4) The five leukemic 32D cell lines were purchased from American Type Culture Collection (ATCC, Manassas, Va., USA). Murine pro-B lymphocyte 32D cell lines were stably transfected with expression vectors that encoded human FLT3 containing an ITD mutation (32D-ITD cells), ITD and D835Y (32D-ITD/D835Y cells), ITD and D835V (32D-ITD/D835V cells), ITD and D835F (32D-ITD/D835F cells), and ITD and F691L (32D-ITD/F691L cells) mutations, which lead to constitutive activation of the FLT3 downstream signaling proteins. The cell viability was assessed with the MTS assay described in PLoS One, 2014, 9, e97116. 32D-ITD/D835Y, 32D-ITD/D835V, 32D-ITD/D835F, 32D-ITD/F691L, and 32D-ITD/F691I cells were seeded in 96-well plates at 1×10^4 cells/mL (100 μL per well) for 24-h incubation. Test compounds (at various concentrations in dimethyl sulfoxide (DMSO) were subsequently added to the culture medium for 72-h incubation. The cell viability was determined by the MTS assay (Promega, Madison, Wis., USA).

The next data set deals with 32D-ITD/D835F cells. The data set is described as above. The note with it: 72-h incubation. The class given is cell-based, Murine.
Text: as §4

Another data set has as its system 32D-ITD/F691I cells. The data set is described as above. The class given is cell-based, Murine. The note with it: Mus musculus, 32D, 72 h, 72-h incubation.
Text: as §4

Setting [2] is: 100 nM, read-out: Inhibition (% of control) at 100 nM.
Setting [3] is: read-out: IC50 value (number in the bracket).

Sequence of SRC (P12931 whole entry): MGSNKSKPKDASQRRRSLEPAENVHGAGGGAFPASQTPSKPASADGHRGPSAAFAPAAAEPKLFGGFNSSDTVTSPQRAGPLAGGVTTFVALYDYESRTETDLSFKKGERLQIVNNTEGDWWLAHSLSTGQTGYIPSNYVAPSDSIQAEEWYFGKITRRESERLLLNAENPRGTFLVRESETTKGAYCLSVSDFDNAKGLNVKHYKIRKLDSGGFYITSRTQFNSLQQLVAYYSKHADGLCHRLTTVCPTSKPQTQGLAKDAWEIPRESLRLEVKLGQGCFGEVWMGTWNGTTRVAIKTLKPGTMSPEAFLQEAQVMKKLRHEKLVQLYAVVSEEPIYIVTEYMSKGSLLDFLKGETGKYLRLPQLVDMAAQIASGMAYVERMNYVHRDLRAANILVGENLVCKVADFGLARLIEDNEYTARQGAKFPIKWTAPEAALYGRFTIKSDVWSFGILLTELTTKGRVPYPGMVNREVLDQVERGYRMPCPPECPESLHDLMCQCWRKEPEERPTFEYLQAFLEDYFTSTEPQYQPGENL
Sequence of KIT (P10721 26-976): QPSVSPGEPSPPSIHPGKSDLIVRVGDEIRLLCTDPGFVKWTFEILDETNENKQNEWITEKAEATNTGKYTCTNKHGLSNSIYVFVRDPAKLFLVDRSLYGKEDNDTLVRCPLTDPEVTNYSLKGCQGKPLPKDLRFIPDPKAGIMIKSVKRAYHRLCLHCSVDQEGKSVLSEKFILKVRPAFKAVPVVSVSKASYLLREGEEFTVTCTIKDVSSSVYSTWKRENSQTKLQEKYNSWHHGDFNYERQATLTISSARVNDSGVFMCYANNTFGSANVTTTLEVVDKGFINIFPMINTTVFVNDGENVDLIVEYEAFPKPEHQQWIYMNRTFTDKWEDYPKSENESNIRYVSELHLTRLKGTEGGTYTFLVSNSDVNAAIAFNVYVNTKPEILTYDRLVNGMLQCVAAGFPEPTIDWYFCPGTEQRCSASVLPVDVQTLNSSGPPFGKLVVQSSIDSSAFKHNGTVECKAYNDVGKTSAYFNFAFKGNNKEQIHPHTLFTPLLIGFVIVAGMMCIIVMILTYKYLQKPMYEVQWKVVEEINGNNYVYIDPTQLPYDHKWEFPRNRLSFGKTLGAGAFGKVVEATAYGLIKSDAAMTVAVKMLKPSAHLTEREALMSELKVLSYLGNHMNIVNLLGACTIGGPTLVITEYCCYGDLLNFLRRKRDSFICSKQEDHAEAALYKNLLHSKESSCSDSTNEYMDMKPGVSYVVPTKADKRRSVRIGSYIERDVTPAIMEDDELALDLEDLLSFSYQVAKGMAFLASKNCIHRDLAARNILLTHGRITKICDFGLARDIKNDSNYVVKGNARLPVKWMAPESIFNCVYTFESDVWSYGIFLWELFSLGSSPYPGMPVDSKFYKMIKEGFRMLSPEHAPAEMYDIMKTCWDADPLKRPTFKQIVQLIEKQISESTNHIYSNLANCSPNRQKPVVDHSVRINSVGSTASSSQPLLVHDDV
Sequence of VEGFR2 (P35968 20-1356): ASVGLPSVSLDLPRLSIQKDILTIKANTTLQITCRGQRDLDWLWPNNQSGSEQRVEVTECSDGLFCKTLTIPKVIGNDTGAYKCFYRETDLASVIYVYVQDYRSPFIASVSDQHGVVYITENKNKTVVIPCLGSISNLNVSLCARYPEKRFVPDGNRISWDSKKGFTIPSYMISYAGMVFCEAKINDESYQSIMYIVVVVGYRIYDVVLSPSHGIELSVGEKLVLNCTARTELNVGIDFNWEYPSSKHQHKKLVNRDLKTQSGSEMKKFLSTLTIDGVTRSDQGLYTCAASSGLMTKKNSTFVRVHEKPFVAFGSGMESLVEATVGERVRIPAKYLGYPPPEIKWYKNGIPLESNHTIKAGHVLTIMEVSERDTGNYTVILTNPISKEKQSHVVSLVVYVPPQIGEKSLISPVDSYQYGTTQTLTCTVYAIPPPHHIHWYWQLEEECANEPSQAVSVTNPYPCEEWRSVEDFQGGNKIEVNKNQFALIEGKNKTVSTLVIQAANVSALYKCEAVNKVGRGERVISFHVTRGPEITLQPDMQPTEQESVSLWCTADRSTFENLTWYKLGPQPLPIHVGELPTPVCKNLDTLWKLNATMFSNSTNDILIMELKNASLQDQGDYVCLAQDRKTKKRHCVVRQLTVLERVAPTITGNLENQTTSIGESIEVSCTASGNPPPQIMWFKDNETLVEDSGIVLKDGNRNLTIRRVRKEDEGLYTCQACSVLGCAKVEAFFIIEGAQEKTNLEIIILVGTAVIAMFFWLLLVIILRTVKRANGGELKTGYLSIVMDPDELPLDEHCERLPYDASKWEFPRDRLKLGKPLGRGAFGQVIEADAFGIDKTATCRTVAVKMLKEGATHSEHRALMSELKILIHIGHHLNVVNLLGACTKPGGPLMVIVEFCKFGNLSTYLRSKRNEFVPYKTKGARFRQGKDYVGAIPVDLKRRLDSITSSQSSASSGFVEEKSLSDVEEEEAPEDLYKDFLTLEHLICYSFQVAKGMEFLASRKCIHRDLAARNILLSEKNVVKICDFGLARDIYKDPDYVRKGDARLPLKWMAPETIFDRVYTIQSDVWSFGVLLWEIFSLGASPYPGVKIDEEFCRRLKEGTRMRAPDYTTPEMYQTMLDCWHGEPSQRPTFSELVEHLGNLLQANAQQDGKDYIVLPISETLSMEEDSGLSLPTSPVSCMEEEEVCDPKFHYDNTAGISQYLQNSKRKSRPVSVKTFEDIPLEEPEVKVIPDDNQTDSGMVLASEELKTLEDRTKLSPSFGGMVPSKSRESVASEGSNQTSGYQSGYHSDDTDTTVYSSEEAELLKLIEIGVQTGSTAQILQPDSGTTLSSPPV

As a reminder, the inhibition is the change of the read-out against control, counted positive when it falls. The term pIC50 denotes the IC50 on a negative log10 scale, so that one unit is a factor of ten. The GI50 is the concentration that inhibits growth by half. As for `CCc1cc(NC(=O)Nc2ccc(-c3cnc(Nc4cc(N5CCN(CCO)CC5)nc(C)n4)s3)cc2)no1` [Compound 1, 1-(5-Ethylisoxazol-3-yl)-3-(4-(2-((6-(4-(2-hydroxyethyl)piperazin-1-yl)-2-methylpyrimidin-4-yl)amino)thiazol-5-yl)phenyl)urea], the “Day 18 TGI” value in the data set with Colo205 xenografts is greater than 80%. Further, the “Mortality (nude mice n = 6)” value in data set [1] (PO 50 mg/kg once daily, 5 on 2 off × 2) is reported as 0/6 (50 mg/kg). The Tolerability result in data set [1] (PO once daily, Compounds 1, 2, 3, 4, 6 at 50, 50, 100, 150 and 25 mg/kg) was “well tolerated”. Also, the inhibition at 0.1 µM on PDGFR A (setting [2]) came to 95%; at VEGFR2 (setting [2]), 95%; at SRC (setting [2]), 96%; on KIT (setting [2]) it was 66%; on ABL1, 81%; at ABL1 T315I it was 65%. In addition, the inhibition at 0.1 µM on PDGFR B (setting [2]) came to 82%; on RET, 96%. The pIC50 was 8.05 on PDGFR A (setting [3]); 7.72 on VEGFR2 (setting [3]); 8.22 on SRC (setting [3]); 7.39 on KIT (setting [3]); 7.72 at PDGFR B (setting [3]). Further, the GI50 in the data set on 32D-ITD/F691L cells was 8.5 nM; in the data set with 32D-ITD/D835F cells it was 3.2 nM; in the data set on 32D-ITD/D835F cells (Mus musculus, 32D, 72 h) it was less than 6 nM; in the data set on 32D-ITD/F691I cells it was 45 nM.
